Measurements: patent US10428083B2, “Heterocyclylmethyl-thienouracile as antagonists of the adenosine-A2B-receptor” (BAYER PHARMA AKTIENGESELLSCHAFT, priority 2015, dated 2019)

What was measured:
[1] = biological target: human adenosine A1 receptor (Homo sapiens (Human), UniProt P30542); assay: Adenosine receptor radioligand binding assay, A1 ([3H]-DPCPX, CHO membranes); settings: radioligand [3H]-DPCPX, CHO membrane preparation; Cheng-Prusoff
Method: (§1) B-2. Adenosine Receptor Binding Assays
(§2) The binding properties of the test compounds on adenosine receptors were determined in binding studies with radioligands. For this purpose, membrane preparations of the human adenosine receptor subtypes were produced from cell lines having recombinant receptor expression (CHO cells for the A1 receptor, HEK293 cells for the A2a, A2b and A3 receptors). The following radioligands were used in the experiments: [^3H]-DPCPX for the A1 receptor, [^3H]-CGS 21680 for the A2a receptor, [^3H]-CPX for the A2b receptor and [^125I]-AB-MECA for the A3 receptor. The test substances were each tested in 8 different concentrations and 2 repeat tests per concentration. The displacement of the particular radioligand by the test compound was expressed as percentage inhibition of the specific binding of the controls. The IC50 values (concentration which brings about half-maximum inhibition of the specific binding of the controls) and the Hill coefficients (nH) were determined by a non-linear regression analysis, using the competition curves obtained from the mean values of the repeat tests and conducting a curve fit according to the Hill equation: Y=D+[A−D/1+(C/C50)^nH] (Y=specific binding; A=left-hand asymptote of the curve; D=right-hand asymptote of the curve; C=substance concentration; C50=IC50; nH=rise factor).
(§3) The inhibition constant (Ki) was calculated by the Cheng-Prusoff equation: Ki=IC50/(1+L/KD) (L=concentration of the radioligand in the assay; KD=receptor affinity of the radioligand for the receptor, determined with a Scatchard plot). [Literature: A1 receptor: Townsend-Nicholson, A. and Schofield, P. R., J. Biol. Chem. 269: 2373-2376 (1994); A2a receptor: Luthin, D. R. et al., Mol. Pharmacol. 47: 307-313 (1995); A2b receptor: Stehle, J. H. et al., Mol. Endocrinol. 6: 384-393 (1992) and Linden et al., Mol. Pharmacol. 56: 705-713 (1999); A3 receptor: Salvatore, C. A. et al., Proc. Natl. Acad. Sci. U.S.A. 90: 10365-10369 (1993) and Jacobson, K. A. et al., Neuropharmacology 36: 1157-1165 (1997)].
(§4) Table 2 below lists the Ki values thus determined from these binding assays for representative working examples: […]

[2] = biological target: human adenosine A2a receptor (Homo sapiens (Human), UniProt P29274); assay: Adenosine receptor radioligand binding assay, A2a ([3H]-CGS 21680, HEK293 membranes); settings: radioligand [3H]-CGS 21680, HEK293 membrane preparation; Cheng-Prusoff
Chain of human adenosine A2a receptor (P29274 whole entry): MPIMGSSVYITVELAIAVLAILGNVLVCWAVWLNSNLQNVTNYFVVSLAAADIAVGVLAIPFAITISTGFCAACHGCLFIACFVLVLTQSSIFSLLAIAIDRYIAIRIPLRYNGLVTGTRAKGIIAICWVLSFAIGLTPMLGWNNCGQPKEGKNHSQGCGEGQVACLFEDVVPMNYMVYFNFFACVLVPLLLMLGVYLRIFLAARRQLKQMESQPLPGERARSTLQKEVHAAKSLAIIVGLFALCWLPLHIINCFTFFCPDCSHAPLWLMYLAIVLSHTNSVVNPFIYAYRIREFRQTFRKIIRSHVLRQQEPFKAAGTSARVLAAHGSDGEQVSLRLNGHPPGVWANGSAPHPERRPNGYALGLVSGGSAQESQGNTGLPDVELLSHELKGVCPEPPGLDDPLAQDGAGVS
Method: as §1, §2, §3, §4

[3] = biological target: T1, human adenosine A2b receptor (Homo sapiens (Human), UniProt P29275); assay: Cellular in vitro reporter gene test for A2b receptor activity (CHO-K1, CRE-luciferase, NECA stimulation); format: cell-based; settings: recombinant CHO-K1 cell line, CRE-luciferase reporter, antagonism of EC50 concentration of NECA; in some cases means of several determinations, rounded to two significant figures; read-out: A2b receptor IC50
T1 sequence (P29275 whole entry): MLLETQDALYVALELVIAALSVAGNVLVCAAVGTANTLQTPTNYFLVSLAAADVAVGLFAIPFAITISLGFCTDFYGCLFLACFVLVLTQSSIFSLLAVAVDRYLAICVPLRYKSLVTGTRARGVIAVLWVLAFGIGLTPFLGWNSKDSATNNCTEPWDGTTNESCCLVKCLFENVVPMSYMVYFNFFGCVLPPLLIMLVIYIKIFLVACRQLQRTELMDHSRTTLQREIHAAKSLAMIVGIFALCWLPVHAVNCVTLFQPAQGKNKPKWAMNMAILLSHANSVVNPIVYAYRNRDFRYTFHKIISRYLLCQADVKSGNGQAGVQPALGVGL
Summary of the method: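 CHO-K1 cells with CRE-driven luciferase; antagonists co-incubated with NECA at its EC50, determined in a pre-experiment on each test day. Luciferase read by luminescence 3 h after NECA addition.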

[4] = biological target: T1, human adenosine A2b receptor; assay: Adenosine receptor radioligand binding assay, A2b ([3H]-CPX, HEK293 membranes); settings: radioligand [3H]-CPX, HEK293 membrane preparation; Cheng-Prusoff
Method: as §1, §2, §3, §4

[5] = biological target: human adenosine A3 receptor (Homo sapiens (Human), UniProt P0DMS8); assay: Adenosine receptor radioligand binding assay, A3 ([125I]-AB-MECA, HEK293 membranes); settings: radioligand [125I]-AB-MECA, HEK293 membrane preparation; Cheng-Prusoff
Chain of human adenosine A3 receptor (P0DMS8 whole entry): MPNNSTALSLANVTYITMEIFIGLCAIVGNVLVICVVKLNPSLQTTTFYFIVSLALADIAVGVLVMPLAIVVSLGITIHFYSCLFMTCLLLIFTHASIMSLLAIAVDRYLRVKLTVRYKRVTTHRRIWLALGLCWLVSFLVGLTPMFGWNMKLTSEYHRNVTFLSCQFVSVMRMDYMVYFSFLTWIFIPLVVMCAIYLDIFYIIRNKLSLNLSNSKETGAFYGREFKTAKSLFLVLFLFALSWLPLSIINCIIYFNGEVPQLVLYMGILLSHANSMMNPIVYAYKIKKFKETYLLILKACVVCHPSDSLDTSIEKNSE
Method: as §1, §2, §3, §4

Chain of human adenosine A1 receptor (P30542 whole entry): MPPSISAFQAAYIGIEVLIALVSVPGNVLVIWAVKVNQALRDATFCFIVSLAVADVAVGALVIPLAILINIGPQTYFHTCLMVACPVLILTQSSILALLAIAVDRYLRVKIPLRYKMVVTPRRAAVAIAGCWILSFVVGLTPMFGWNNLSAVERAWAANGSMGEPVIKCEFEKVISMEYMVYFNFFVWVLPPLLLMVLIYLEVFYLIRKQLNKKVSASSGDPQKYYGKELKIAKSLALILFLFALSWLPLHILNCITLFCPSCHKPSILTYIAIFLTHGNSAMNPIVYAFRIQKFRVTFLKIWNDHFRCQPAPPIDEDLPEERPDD

Question: With `CCn1c(=O)c2c(C)c(CN3CCNC3=O)sc2n(CC2CCO2)c1=O` (single isomer, unassigned; enantiomer 1) [Example 66, 3-Ethyl-5-methyl-1-(oxetan-2-ylmethyl)-6-[(2-oxoimidazolidin-1-yl)methyl]thieno[2,3-d]pyrimidine-2,4(1H,3H)-dione (Enantiomer 1)] as the compound, how does the Ki [1] read?
Answer: 950 nM

Question: And the Ki [2]?
Answer: 280 nM

Question: What about the IC50 [3] of the same compound?
Answer: 4.3 nM

Question: And the Ki [4]?
Answer: 5.2 nM

Question: And the Ki [5]?
Answer: 6800 nM

Question: `CCn1c(=O)c2c(C)c(CN3CCNC3=O)sc2n(CCOC)c1=O` [Example 59, 3-Ethyl-1-(2-methoxyethyl)-5-methyl-6-[(2-oxoimidazolidin-1-yl)methyl]thieno[2,3-d]pyrimidine-2,4(1H,3H)-dione] was tested. Which Ki [1] did it give?
Answer: 330 nM

Question: And the Ki [2]?
Answer: 120 nM

Question: And the IC50 [3]?
Answer: 5.1 nM

Question: And the Ki [4]?
Answer: 2.4 nM

Question: And the Ki [5]?
Answer: 11000 nM

Question: `COCCn1c(=O)n(C(C)C)c(=O)c2c(C)c(CN3CCNC3=O)sc21` [Example 86, 3-Isopropyl-1-(2-methoxyethyl)-5-methyl-6-[(2-oxoimidazolidin-1-yl)methyl]thieno[2,3-d]pyrimidine-2,4(1H,3H)-dione] was tested. Which Ki [1] did it give?
Answer: 1100 nM

Question: And the Ki [2]?
Answer: 270 nM

Question: And the IC50 [3]?
Answer: 6.4 nM

Question: What about the Ki [4] of the same compound?
Answer: 2.7 nM

Question: And the Ki [5]?
Answer: 160000 nM

Question: Which Ki [1] does the source give for `CCn1c(=O)c2c(C)c(Cn3cc[nH]c3=O)sc2n(CCOC)c1=O` [Example 109, 3-Ethyl-1-(2-methoxyethyl)-5-methyl-6-[(2-oxo-2,3-dihydro-1H-imidazol-1-yl)methyl]thieno[2,3-d]pyrimidine-2,4(1H,3H)-dione] here?
Answer: 590 nM

Question: And the Ki [2]?
Answer: 100 nM

Question: And the IC50 [3]?
Answer: 4.2 nM

Question: What about the Ki [4] of the same compound?
Answer: 2.8 nM

Question: And the Ki [5]?
Answer: 14000 nM

Question: `CCn1c(=O)c2c(C)c(Cn3nc[nH]c3=O)sc2n(CCC(F)(F)F)c1=O` [Example 113, 3-Ethyl-5-methyl-6-[(5-oxo-4,5-dihydro-1H-1,2,4-triazol-1-yl)methyl]-1-(3,3,3-trifluoropropyl)thieno[2,3-d]pyrimidine-2,4(1H,3H)-dione] was tested. Which Ki [1] did it give?
Answer: 1500 nM

Question: What about the Ki [2] of the same compound?
Answer: 1700 nM

Question: What about the IC50 [3] of the same compound?
Answer: 8.1 nM

Question: And the Ki [4]?
Answer: 6.4 nM

Question: For `CCn1c(=O)c2c(C)c(Cn3cn[nH]c3=O)sc2n(CCC(F)(F)F)c1=O` [Example 116, 3-Ethyl-5-methyl-6-[(5-oxo-1,5-dihydro-4H-1,2,4-triazol-4-yl)methyl]-1-(3,3,3-trifluoropropyl)thieno[2,3-d]pyrimidine-2,4(1H,3H)-dione], which Ki [1] is on record?
Answer: 3300 nM

Question: And the Ki [2]?
Answer: 790 nM

Question: What about the IC50 [3] of the same compound?
Answer: 24 nM

Question: What about the Ki [4] of the same compound?
Answer: 12 nM

Question: And the Ki [5]?
Answer: 330 nM

Question: For `COCCn1c(=O)n(CC(C)(C)C)c(=O)c2c(C)c(CN3CCNC3=NC(=O)OC)sc21` [Example 462, Methyl [1-{[3-(2,2-dimethylpropyl)-1-(2-methoxyethyl)-5-methyl-2,4-dioxo-1,2,3,4-tetrahydrothieno[2,3-d]pyrimidin-6-yl]methyl}imidazolidin-2-ylidene]carbamate], which IC50 [3] is on record?
Answer: 16 nM

Question: `Cc1c(CN2CCNC(=O)C2=O)sc2c1c(=O)n(C(C)C)c(=O)n2CCC(F)(F)F` [Example 478, 6-[(2,3-Dioxopiperazin-1-yl)methyl]-3-isopropyl-5-methyl-1-(3,3,3-trifluoropropyl)thieno[2,3-d]pyrimidine-2,4(1H,3H)-dione] was tested. Which IC50 [3] did it give?
Answer: 41 nM

Question: With `COCCn1c(=O)n(C(C)C)c(=O)c2c(C)c(CN3CCNC(=O)C3=O)sc21` [Example 479, 6-[(2,3-Dioxopiperazin-1-yl)methyl]-3-isopropyl-1-(2-methoxyethyl)-5-methylthieno[2,3-d]pyrimidine-2,4(1H,3H)-dione] as the compound, how does the IC50 [3] read?
Answer: 140 nM

Question: `COCCn1c(=O)n(CC(F)(F)F)c(=O)c2c(C)c(CN3CCNC(=O)C3=O)sc21` [Example 486, 6-[(2,3-Dioxopiperazin-1-yl)methyl]-1-(2-methoxyethyl)-5-methyl-3-(2,2,2-trifluoroethyl)thieno[2,3-d]pyrimidine-2,4(1H,3H)-dione] was tested. Which IC50 [3] did it give?
Answer: 190 nM

Question: `CCOCCn1c(=O)c2c(C)c(CN3CCNC(=O)C3=O)sc2n(CCCF)c1=O` [Example 492, 6-[(2,3-Dioxopiperazin-1-yl)methyl]-3-(2-ethoxyethyl)-1-(3-fluoropropyl)-5-methylthieno[2,3-d]pyrimidine-2,4(1H,3H)-dione] was tested. Which IC50 [3] did it give?
Answer: 250 nM

Question: Which IC50 [3] does the source give for `Cc1c(CN2CCN(C(C)C)C(=O)C2=O)sc2c1c(=O)n(CC(C)C)c(=O)n2CCCF` [Example 496, 1-(3-Fluoropropyl)-3-isobutyl-6-[(4-isopropyl-2.3-dioxopiperazin-1-yl)methyl]-5-methylthieno[2,3-d]pyrimidine-2,4(1H,3H)-dione] here?
Answer: 120 nM

Question: `CCn1c(=O)c2c(C)c(CN3CC(=O)NCC3=O)sc2n(CCC(F)(F)F)c1=O` [Example 497, 6-[(2,5-Dioxopiperazin-1-yl)methyl]-3-ethyl-5-methyl-1-(3,3,3-trifluoropropyl)thieno[2,3-d]pyrimidine-2,4(1H,3H)-dione] was tested. Which IC50 [3] did it give?
Answer: 730 nM

Question: For `[2H]C([2H])(c1sc2c(c1C)c(=O)n(CC(F)(F)F)c(=O)n2CCOC)N1CCNC1=O` [Example 500, 1-(2-Methoxyethyl)-5-methyl-6-[(2-oxoimidazolidin-1-yl)(dideutero)methyl]-3-(2,2,2-trifluoroethyl)thieno[2,3-d]pyrimidine-2,4(1H,3H)-dione], which IC50 [3] is on record?
Answer: 10 nM

Question: How did the IC50 [3] turn out when `[2H]C([2H])(c1sc2c(c1C)c(=O)n([C@H](C)C(F)(F)F)c(=O)n2CCOC)N1CCNC1=O` [Example 501, 1-(2-Methoxyethyl)-5-methyl-6-[(2-oxoimidazolidin-1-yl)(dideutero)methyl]-3-[(2R)-1,1,1-trifluoropropan-2-yl]thieno[2,3-d]pyrimidine-2,4(1H,3H)-dione] was run?
Answer: 43 nM

Question: For `[2H]C([2H])(c1sc2c(c1C)c(=O)n([C@@H](C)C(F)(F)F)c(=O)n2CCOC)N1CCNC1=O` [Example 502, 1-(2-Methoxyethyl)-5-methyl-6-[(2-oxoimidazolidin-1-yl)(dideutero)methyl]-3-[(2S)-1,1,1-trifluoropropan-2-yl]thieno[2,3-d]pyrimidine-2,4(1H,3H)-dione], which IC50 [3] is on record?
Answer: 18 nM

Question: With `Cc1c(Cn2cc[nH]c2=O)sc2c1c(=O)n(CC(C)(C)C)c(=O)n2CCC(F)(F)F` [Example 505, 3-(2,2-Dimethylpropyl)-5-methyl-6-[(2-oxo-2,3-dihydro-H-imidazol-1-yl)methyl]-1-(3,3,3-trifluoropropyl)thieno[2,3-d]pyrimidine-2,4(1H,3H)-dione] as the compound, how does the IC50 [3] read?
Answer: 5 nM

Question: How did the IC50 [3] turn out when `COCCn1c(=O)n(CC(C)(C)C)c(=O)c2c(C)c(Cn3cc[nH]c3=O)sc21` [Example 506, 3-(2,2-Dimethylpropyl)-1-(2-methoxyethyl)-5-methyl-6-[(2-oxo-2,3-dihydro-1H-imidazol-1-yl)methyl]thieno[2,3-d]pyrimidine-2,4(1H,3H)-dione] was run?
Answer: 12 nM

Question: With `[2H]C([2H])(c1sc2c(c1C)c(=O)n(C(C)C)c(=O)n2CCOC)N1CCNC1=NC#N` [Example 512, [1-{[3-Isopropyl-1-(2-methoxyethyl)-5-methyl-2,4-dioxo-1,2,3,4-tetrahydrothieno[2,3-d]pyrimidin-6-yl](dideutero)methyl}imidazolidin-2-ylidene]cyanamide] as the compound, how does the IC50 [3] read?
Answer: 5.1 nM

Question: Which IC50 [3] does the source give for `[2H]C([2H])(c1sc2c(c1C)c(=O)n(CC(F)(F)F)c(=O)n2CCOC)N1CCNC1=NC#N` [Example 513, [1-{[1-(2-Methoxyethyl)-5-methyl-2,4-dioxo-3-(2,2,2-trifluoroethyl)-1,2,3,4-tetrahydrothieno[2,3-d]pyrimidin-6-yl](dideutero)methyl}imidazolidin-2-ylidene]cyanamide] here?
Answer: 8.4 nM
